Assay results reported in patent publication US8987195B2 (priority 2012, dated 2015).

Target: HCV NS3/4A protease genotype 1b (Hepatitis C virus genotype 1b, UniProt P26663)
Assay: HCV NS3/4A protease time-resolved fluorescence (TRF) assay, Ki against genotype 1b
Assay type: biochemical
Conditions: IC50 [gt-1b] (nM), NS3/4A genotype 1b, enzyme 0.2 nM
Experimental: Measuring NS3/4A Inhibitory Activity (Ki) Against Genotype 1b, Against A156T Mutants and Against Genotype 3a
One assay for measuring inhibitory activity is HCV NS3 protease time-resolved fluorescence (TRF) assay as described below and in Mao et al., Anal. Biochem. 373:1-8, 2008 and International Patent Application Publication WO 2006/102087. A NS3 protease assay can be performed, for example, in a final volume of 20 μl assay buffer containing 50 mM HEPES, pH 7.5, 150 mM NaCl, 15% glycerol, 0.15% TRITON X-100, 10 mM DTT, and 0.1% PEG 8000. NS3 and NS4A protease is pre-incubated with various concentrations of inhibitors in DMSO for 30 min. The reaction is initiated by adding the TRF peptide substrate (final concentration 25 nM). NS3 mediated hydrolysis of the substrate was run for 2.5 hours at room temperature. Product fluorescence is detected using A Pherastar Plus plate reader (BMG) or Envision (Perkin Elmer Life and Analytical Sciences with excitation at 340 nm and emission at 615 nm using the appropriate delay time optimized for the europium fluorescence probe. Testing concentrations of different enzyme forms are selected to result in a signal to background ratio (S/B) of 10-30. IC50 values are derived using a standard four-parameter fit to the data. Ki values are derived from IC50 values using the following formula, IC50=Ki(1+[S]/KM), Eqn (1), where [S] is the concentration of substrate peptide in the reaction and KM is the Michaelis constant. See P. Gallinari et al., 38 BIOCHEM. 5620-32 (1999); P. Gallinari et al., 72 J. VIROL. 6758-69 (1998); M. Taliani et al., 240 ANAL. BIOCHEM. 60-67 (1996); Mao et al., Analytical Biochemistry 373: 1-8, 2008.
The assay described above was run against genotype 1b at a concentration of 0.2 nM, against A156T mutant strains at a concentration of 0.4 nM, and against genotype 3a at a concentration of 0.025 nM.

Row | SMILES | IC50 [nM] | IC50 (K+ salt) [nM]
1 | COc1ccc2nc(C(F)(F)F)c3c(c2c1)OC[C@]1(C[C@H]2C(=O)N[C@]4(C(=O)NS(=O)(=O)C5(C)CC5)C[C@H]4/C=C\CCCCC[C@H](NC(=O)OC(C)(C)C)C(=O)N2C1)O3 [Example 8, tert-Butyl ((2′R,6′S,13a′S,14a′R,16a′S,Z)-9-methoxy-14a′-(((1-methylcyclopropyl)sulfonyl)carbamoyl)-5′,16′-dioxo-5-(trifluoromethyl)-3′,5′,6′,7′,8′,9′,10′,11′, 13a′,14′,14a′,15′,16′,16a′-tetradecahydro-1H,2H-spiro[[1,4]dioxino[2,3-c]quinoline-3,2′-cyclopropa[e]pyrrolo[1,2-a][1,4]diazacyclopentadecin]-6′-yl)carbamate] | 0.011 | –
2 | COc1ccc2nc(C)c3c(c2c1)CC[C@]1(C[C@H]2C(=O)N[C@]4(C(=O)NS(=O)(=O)C5(C)CC5)C[C@H]4/C=C\CCCCC[C@H](NC(=O)OC(C)(C)C)C(=O)N2C1)O3 [Example 9, tert-Butyl [(2R,6S,12Z,13aS,14aR,16aS)-9′-methoxy-5′-methyl-14a-{[(1-methylcyclopropyl)sulfonyl]carbamoyl}-5,16-dioxo-1,1′,2′,5,6,7,8,9,10,11,13a,14,14a,15, 16,16a-hexadecahydrospiro[cyclopropa[e]pyrrolo[1,2-a][1,4]diazacyclopentadecine-2,3′-pyrano[2,3-c]quinolin]-6-yl]carbamate] | – | 0.006
3 | COc1ccc2nc(C(F)F)c3c(c2n1)CC[C@]1(C[C@H]2C(=O)N[C@]4(C(=O)NS(=O)(=O)C5(C)CC5)C[C@H]4/C=C\CCCCC[C@H](NC(=O)OC(C)(C)C)C(=O)N2C1)O3 [Example 12, tert-Butyl ((2R,6S,13aS,14aR,16aS,Z)-6′-(difluoromethyl)-2′-methoxy-14a-(((1-methylcyclopropyl)sulfonyl)carbamoyl)-5,16-dioxo-3,5,6,7,8,9,9′,10,10′,11,13a,14,14a, 15,16,16a-hexadecahydro-1H-spiro[cyclopropa[e]pyrrolo[1,2-a][1,4]diazacyclopentadecine-2,8′-pyrano[2,3-c][1,5]naphthyridin]-6-yl)carbamate] | 0.007 | –
4 | COc1ccc2nc(C(C)C)c3c(c2c1)[C@H](F)C[C@]1(C[C@H]2C(=O)N[C@]4(C(=O)NS(=O)(=O)C5(C)CC5)C[C@H]4/C=C\CCCCC[C@H](NC(=O)OC(C)(C)C)C(=O)N2C1)O3 [Example 32, tert-butyl ((1′R,2S,6S,13aS,14aR,16aS,Z)-1′-fluoro-5′-isopropyl-9′-methoxy-14a-(((1-methylcyclopropyl)sulfonyl)carbamoyl)-5,16-dioxo-1′,2′,3,5,6,7,8,9,10,11,13a,14, 14a,15,16,16a-hexadecahydro-1H-spiro[cyclopropa[e]pyrrolo[1,2-a][1,4]diazacyclopentadecine-2,3′-pyrano[2,3-c]quinolin]-6-yl)carbamate] | 0.024 | –
5 | CC(C)(C)OC(=O)N[C@H]1CCCCC/C=C\[C@@H]2C[C@@]2(C(=O)NS(=O)(=O)C2(C)CC2)NC(=O)[C@@H]2C[C@]3(CCc4c(c(C(F)(F)F)nc5ccc(OCCN6CCCCC6)cc45)O3)CN2C1=O [Example 67, tert-Butyl ((2R,6S,13aS,14aR,16aS,Z)-14a-(((1-methylcyclopropyl)sulfonyl)carbamoyl)-5,16-dioxo-9′(2-(piperidin-1-yl)ethoxy)-5′-(trifluoromethyl)-1′,2′,3,5,6,7,8,9,10,11,13a,14,14a,15,16,16a-hexadecahydro-1H-spiro[cyclopropa[e]pyrrolo[1,2-a][1,4]diazacyclopentadecine-2,3′-pyrano[2,3-c]quinolin]-6-yl)carbamate] | 0.021 | –
6 | Cc1nc2ccccc2c2c1O[C@]1(CC2)C[C@H]2C(=O)N[C@]3(C(=O)NS(=O)(=O)C4(C)CC4)C[C@H]3/C=C\CCCCC[C@H](NC(=O)OC3CCN(C)CC3)C(=O)N2C1 [Example 117, 1-methylpiperidin-4-yl [(2R,6S,12Z,13aS,14aR,16aS)-5′-methyl-14a-{[(1-methylcyclopropyl)sulfonyl]carbamoyl}-5,16-dioxo-1,1′,2′,5,6,7,8,9,10,11,13a,14,14a,15,16,16a-hexadecahydrospiro[cyclopropa[e]pyrrolo[1,2-a][1,4]diazacyclopentadecine-2,3′-pyrano[2,3-c]quinolin]-6-yl]carbamate] | 0.056 | –
7 | COc1ccc2nc(C)c3c(c2c1)CC[C@]1(C[C@H]2C(=O)N[C@]4(C(=O)NS(=O)(=O)C5(C)CC5)C[C@H]4/C=C\CCCCC[C@H](NC(=O)OC4(C)CCC4)C(=O)N2C1)O3 [Example 186, 1-methylcyclobutyl [(2R,6S,12Z,13aS,14aR,16aS)-9′-methoxy-5′-methyl-14a-{[(1-methylcyclopropyl)sulfonyl]carbamoyl}-5,16-dioxo-1,1′,2′,5,6,7,8,9,10,11,13a,14,14a,15,16,16a-hexadecahydrospiro[cyclopropa[e]pyrrolo[1,2-a][1,4]diazacyclopentadecine-2,3′-pyrano[2,3-c]quinolin]-6-yl]carbamate] | – | 0.009
8 | Cc1nc2cc(F)c(F)cc2c2c1O[C@]1(CC2)C[C@H]2C(=O)N[C@]3(C(=O)NS(=O)(=O)C4(C)CC4)C[C@H]3/C=C\CCCCC[C@H](NC(=O)OC3CCCCC3)C(=O)N2C1 [Example 203, cyclohexyl [(2R,6S,12Z,13aS,14aR,16aS)-8′,9′-difluoro-5′-methyl-14a-{[(1-methylcyclopropyl)sulfonyl]carbamoyl}-5,16-dioxo-1,1′,2′,5,6,7,8,9,10,11,13a,14,14a,15,16,16a-hexadecahydrospiro[cyclopropa[e]pyrrolo[1,2-a][1,4]diazacyclopentadecine-2,3′-pyrano[2,3-c]quinolin]-6-yl]carbamate] | – | 0.015
9 | Cc1nc2cc(F)c(F)cc2c2c1O[C@]1(CC2)C[C@H]2C(=O)N[C@]3(C(=O)NS(=O)(=O)C4(C)CC4)C[C@H]3/C=C\CCCCC[C@H](NC(=O)OC3CCC3)C(=O)N2C1 [Example 204, cyclobutyl [(2R,6S,12Z,13aS,14aR,16aS)-8′,9′-difluoro-5′-methyl-14a-{[(1-methylcyclopropyl)sulfonyl]carbamoyl}-5,16-dioxo-1,1′,2′,5,6,7,8,9,10,11,13a,14,14a,15,16,16a-hexadecahydrospiro[cyclopropa[e]pyrrolo[1,2-a][1,4]diazacyclopentadecine-2,3′-pyrano[2,3-c]quinolin]-6-yl]carbamate] | – | 0.015
10 | Cc1nc2ccc(OC(F)(F)F)cc2c2c1O[C@]1(CC2)C[C@H]2C(=O)N[C@]3(C(=O)NS(=O)(=O)C4(C)CC4)C[C@H]3/C=C\CCCCC[C@H](NC(=O)OC3(C)CCCC3)C(=O)N2C1 [Example 209, 1-methylcyclopentyl [(2R,6S,12Z,13aS,14aR,16aS)-5′-methyl-14a-{[(1-methylcyclopropyl)sulfonyl]carbamoyl}-5,16-dioxo-9′-(trifluoromethoxy)-1,1′,2′,5,6,7,8,9,10,11,13a,14,14a,15,16,16a-hexadecahydrospiro[cyclopropa[e]pyrrolo[1,2-a][1,4]diazacyclopentadecine-2,3′-pyrano[2,3-c]quinolin]-6-yl]carbamate] | 0.03 | –
11 | COc1ccc2nc(C)c3c(c2c1)CC[C@]1(C[C@H]2C(=O)N[C@]4(C(=O)NS(=O)(=O)C5(C)CC5)C[C@H]4/C=C\CCCCC[C@H](NC(=O)OC4(C5CC5)CC4)C(=O)N2C1)O3 [Example 212, 1,1′-bi(cyclopropyl)-1-yl [(2R,6S,12Z,13aS,14aR,16aS)-9′-methoxy-5′-methyl-14a-{[(1-methylcyclopropyl)sulfonyl]carbamoyl}-5,16-dioxo-1,1′,2′,5,6,7,8,9,10,11,13a,14,14a,15,16,16a-hexadecahydrospiro[cyclopropa[e]pyrrolo[1,2-a][1,4]diazcyclopentadecine-2,3′-pyrano[2,3-c]quinolin]-6-yl]carbamate] | – | 0.003
12 | COc1ccc2nc(C)c3c(c2c1)CC[C@]1(C[C@H]2C(=O)N[C@]4(C(=O)NS(=O)(=O)C5(C)CC5)C[C@H]4/C=C\CCCCC[C@H](NC(=O)OCC4CCC4)C(=O)N2C1)O3 [Example 213, cyclobutylmethyl [(2R,6S,12Z,13aS,14aR,16aS)-9′-methoxy-5′-methyl-14a-{[(1-methylcyclopropyl)sulfonyl]carbamoyl}-5,16-dioxo-1,1′,2′,5,6,7,8,9,10,11,13a,14,14a,15,16,16a-hexadecahydrospiro[cyclopropa[e]pyrrolo[1,2-a][1,4]diazacyclopentadecine-2,3′-pyrano[2,3-c]quinolin]-6-yl]carbamate] | – | 0.004
